Test results published in PubChem BioAssay (NCI).
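Briefly, cells in 96-well plates were exposed to five compound concentrations for 48 h, and endpoints were estimated by linear interpolation. TGI denotes the concentration required for complete inhibition of growth.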

Legend:
Assay in all cases: NCI tumour cell line growth inhibition, 48 h
SNB-78 CNS = system: SNB-78 CNS
XF 498 CNS = system: XF 498 CNS
NCI-H23 lung = system: NCI-H23 lung
SNB-19 CNS = system: SNB-19 CNS
EKVX NSCLC = system: EKVX NSCLC
UACC-257 melanoma = system: UACC-257 melanoma
NCI-H226 lung = system: NCI-H226 lung
LOX IMVI melanoma = system: LOX IMVI melanoma
KM20L2 colon = system: KM20L2 colon
HCT-15 colon = system: HCT-15 colon
MOLT-4 leukemia = system: MOLT-4 leukemia
OVCAR-8 ovarian = system: OVCAR-8 ovarian
HCC-2998 colon = system: HCC-2998 colon
A549 NSCLC = system: A549 NSCLC
M19-MEL melanoma = system: M19-MEL melanoma
HCT-116 colon = system: HCT-116 colon
SK-MEL-5 melanoma = system: SK-MEL-5 melanoma
COLO 205 colon = system: COLO 205 colon
RXF 393 renal = system: RXF 393 renal
IGROV1 ovarian = system: IGROV1 ovarian
NCI/ADR-RES ovarian = system: NCI/ADR-RES ovarian
DMS 273 small cell lung = system: DMS 273 small cell lung
HOP-18 NSCLC = system: HOP-18 NSCLC
P388 leukemia = system: P388 leukemia
SK-MEL-2 melanoma = system: SK-MEL-2 melanoma
UO-31 renal = system: UO-31 renal
SNB-75 CNS = system: SNB-75 CNS
NCI-H460 lung = system: NCI-H460 lung
U251 CNS = system: U251 CNS
NCI-H522 lung = system: NCI-H522 lung
P388/ADR leukemia = system: P388/ADR leukemia
HT29 colon = system: HT29 colon
CCRF-CEM leukemia = system: CCRF-CEM leukemia
SW-620 colon = system: SW-620 colon
SF-539 CNS = system: SF-539 CNS
SF-268 CNS = system: SF-268 CNS
OVCAR-5 ovarian = system: OVCAR-5 ovarian
OVCAR-3 ovarian = system: OVCAR-3 ovarian
UACC-62 melanoma = system: UACC-62 melanoma
MCF7 breast = system: MCF7 breast
A498 renal = system: A498 renal
SF-295 CNS = system: SF-295 CNS
HOP-62 NSCLC = system: HOP-62 NSCLC
RPMI-8226 leukemia = system: RPMI-8226 leukemia
MALME-3M melanoma = system: MALME-3M melanoma
SK-MEL-28 melanoma = system: SK-MEL-28 melanoma
HL-60(TB) leukemia = system: HL-60(TB) leukemia
K-562 leukemia = system: K-562 leukemia
DLD-1 colon = system: DLD-1 colon
SN12K1 renal = system: SN12K1 renal
OVCAR-4 ovarian = system: OVCAR-4 ovarian
SN12C renal = system: SN12C renal
KM12 colon = system: KM12 colon
SK-OV-3 ovarian = system: SK-OV-3 ovarian
DMS 114 small cell lung = system: DMS 114 small cell lung
HOP-92 NSCLC = system: HOP-92 NSCLC
CAKI-1 renal = system: CAKI-1 renal

Measured: TGI

COc1nc(SC)nc2c1cnn2C1OC(C(O)CO)C(OC)C1O (stereo unspecified)
69 µM: MOLT-4 leukemia
> 84 µM: SN12K1 renal
not listed: HOP-92 NSCLC | CAKI-1 renal
> 100 µM: all other assays above

CCCCC(C)C1CCC2(C)C=CC(=O)C(C)=C2C1O (stereo unspecified)
not listed: MALME-3M melanoma
> 100 µM: all other assays above
